# “And” between values parts separate entries of the source, which are not always exact repeats. Equal values may be shown once.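 These data come from cells grown in 96-well plates and exposed to compound for 48 hours at five concentrations. GI50 is the concentration that inhibits growth by half. Definition used: TGI = concentration required for complete inhibition of growth.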
# Experiments:
# Test in all cases: growth of human tumour cells (NCI), 48 h
# U251 CNS = tested on: U251 CNS
# MALME-3M melanoma = tested on: MALME-3M melanoma
# RPMI-8226 leukemia = tested on: RPMI-8226 leukemia
# MDA-MB-231 breast = tested on: MDA-MB-231 breast
# NCI-H23 lung = tested on: NCI-H23 lung
# SK-MEL-28 melanoma = tested on: SK-MEL-28 melanoma
# SW-620 colon = tested on: SW-620 colon
# KM12 colon = tested on: KM12 colon
# ACHN renal = tested on: ACHN renal
# IGROV1 ovarian = tested on: IGROV1 ovarian
Structure (SMILES),GI50 (U251 CNS),TGI (U251 CNS),GI50 (MALME-3M melanoma),TGI (MALME-3M melanoma),GI50 (RPMI-8226 leukemia),TGI (RPMI-8226 leukemia),GI50 (MDA-MB-231 breast),TGI (MDA-MB-231 breast),GI50 (NCI-H23 lung),TGI (NCI-H23 lung),GI50 (SK-MEL-28 melanoma),TGI (SK-MEL-28 melanoma),GI50 (SW-620 colon),TGI (SW-620 colon),GI50 (KM12 colon),TGI (KM12 colon),GI50 (ACHN renal),TGI (ACHN renal),GI50 (IGROV1 ovarian),TGI (IGROV1 ovarian)
COC(=O)/C(=C\c1c(C)[nH]c2ccccc12)S(=O)(=O)c1ccccc1,3.42 µM,12.6 µM,7.27 µM,32.6 µM,3.15 µM,> 100 µM,2.74 µM,14.5 µM,4.81 µM,29.5 µM,5.78 µM,18.7 µM,5.15 µM,21.9 µM,2.37 µM,6.31 µM,5.52 µM,18.5 µM,1.53 µM,8.94 µM
Cc1ccc2c(=O)c3cccc(CC(=O)O)c3oc2c1C,> 100 µM,> 100 µM,> 100 µM,> 100 µM,> 100 µM,> 100 µM,> 100 µM,> 100 µM,> 100 µM,> 100 µM,> 100 µM,> 100 µM,> 100 µM,> 100 µM,> 100 µM,> 100 µM,> 100 µM,> 100 µM,> 100 µM,> 100 µM
C[C@]12CCC(=O)C(O)=C1CC[C@@H]1[C@@H]2CC[C@]2(C)C(=O)CC[C@@H]12,,> 100 µM,,> 100 µM,,> 100 µM,,> 100 µM,,> 100 µM,,> 100 µM,,> 100 µM,,> 100 µM,,> 100 µM,,> 100 µM
C[C@]12CC[C@@H]3c4ccc(O)cc4CC[C@H]3[C@@H]1CC[C@@H]2NS(=O)(=O)Cc1ccc(Cl)cc1,3.33 µM,11.8 µM,2.85 µM,9.95 µM,3.14 µM,15.5 µM,1.75 µM,4.54 µM,2.76 µM,10.8 µM,2.01 µM,4.22 µM,3.5 µM,17.3 µM,2.05 µM,4.39 µM,2.94 µM,11.5 µM,2.99 µM,10.4 µM
CCOC(CN=c1nc(N(C)C)ss1)OCC,,29.9 µM,,52.9 µM,,8.54 µM,,29.8 µM,,65.8 µM,,58.9 µM,,25.9 µM,,38.9 µM,,58.7 µM,,> 100 µM
S=C(N/N=C/c1ccccn1)Nc1ccccn1,1.07 µM,24 µM,1.81 µM,> 100 µM,1.44 µM,> 100 µM,0.642 µM,> 100 µM,3.23 µM,> 100 µM,2.51 µM,> 100 µM,1.7 µM,> 100 µM,2.87 µM,> 100 µM,1.56 µM,> 100 µM,3.17 µM,> 100 µM
O=C(C(Br)Br)C(Br)C(Br)c1ccccc1 (configuration not stated),2.96 µM,10.8 µM,3.11 µM,8.65 µM,1.54 µM,4.36 µM,5.4 µM,20.6 µM,5.16 µM,27.5 µM,6.7 µM,22.1 µM,2.03 µM,4.19 µM,14.2 µM,28.5 µM,1.68 µM,3.18 µM,3.56 µM,11.5 µM
COc1nc(C)cc2c(=O)n(-c3ccccc3)n(CCCN3CCN(c4ccc(Cl)cc4)CC3)c(=O)c12,32.1 µM,> 50 µM,> 50 µM,> 50 µM,> 50 µM,> 50 µM,39.5 µM,> 50 µM,> 50 µM,> 50 µM,> 50 µM,> 50 µM,43.8 µM,> 50 µM,> 50 µM,> 50 µM,> 50 µM,> 50 µM,> 50 µM,> 50 µM
O=C1c2ccccc2-c2c1c1ccccc1c(=O)n2CCNCCNCCn1c2c(c3ccccc3c1=O)C(=O)c1ccccc1-2,0.0382 µM,1.59 µM,0.207 µM,16.2 µM,0.011 µM,1.24 µM,0.432 µM,5.72 µM,0.717 µM,> 30.6 µM,2.9 µM,24.5 µM,0.0296 µM,1.93 µM,0.0327 µM,1.72 µM,0.0217 µM,17 µM,1.02 µM,> 21.2 µM
CNC(=O)c1cccc(-c2ccc3c(N4CCOC[C@@H]4C)nc(N4CCOC[C@@H]4C)nc3n2)c1,0.236 µM and 0.422 µM and 0.176 µM,> 100 µM,0.0201 µM and 0.0351 µM and < 0.0204 µM,0.55 µM and 0.524 µM and 0.138 µM,0.0486 µM and 0.0473 µM and 0.0363 µM,,0.181 µM and 0.168 µM and 0.184 µM,34.3 µM and > 10 µM and > 64 µM,0.111 µM and 0.273 µM and 0.245 µM,> 100 µM,0.041 µM and 0.123 µM and 0.0402 µM,0.72 µM and 3.01 µM and 0.671 µM,0.26 µM and 0.356 µM and 0.293 µM,> 100 µM,0.0947 µM and 0.273 µM and 0.179 µM,> 100 µM,0.095 µM and 0.115 µM and 0.119 µM,> 100 µM,0.0443 µM and 0.0381 µM and 0.0224 µM,
N=C(N)CCCCCCCCC(=N)N,8.08 µM,> 100 µM,39.9 µM,> 100 µM,31.1 µM,> 100 µM,63.3 µM,> 100 µM,5.11 µM,70.4 µM,58.1 µM,> 100 µM,32.5 µM,> 100 µM,21.1 µM,> 100 µM,> 100 µM,> 100 µM,52.9 µM,> 100 µM
Cc1cc2c(F)c(Oc3ncnn4cc(OC[C@@H](C)OC(=O)[C@H](C)N)c(C)c34)ccc2[nH]1,4.22 µM,18.5 µM,11.7 µM,24.9 µM,5.94 µM,23.7 µM,14.1 µM,29.7 µM,11.8 µM,25.9 µM,12.9 µM,25.7 µM,6.33 µM,19.7 µM,7.68 µM,20.5 µM,8.85 µM,21.5 µM,9.1 µM,23.4 µM
C[N+](C)(CCCCCC[N+](C)(C)CCCN1C(=O)c2cc3ccccc3cc2C1=O)CCCN1C(=O)c2ccccc2C1=O,> 37.5 µM,> 37.5 µM,> 37.5 µM,> 37.5 µM,> 37.5 µM,> 37.5 µM,> 37.5 µM,> 37.5 µM,> 37.5 µM,> 37.5 µM,> 37.5 µM,> 37.5 µM,> 37.5 µM,> 37.5 µM,> 37.5 µM,> 37.5 µM,> 37.5 µM,> 37.5 µM,> 37.5 µM,> 37.5 µM
O=C1C(=O)c2ccccc2C(O)=C1C(CCc1ccccc1)C1=C(O)c2ccccc2C(=O)C1=O,,> 100 µM,,29.7 µM,,> 100 µM,,> 100 µM,,> 100 µM,,> 100 µM,,> 100 µM,,> 100 µM,,> 100 µM,,> 100 µM
C[C@H]1CCC/C=C/[C@@H]2C[C@H](O)C[C@H]2[C@H](O)[C@@H](S(=O)CCN(C)C)CC(=O)O1 (some centres not stated),0.498 µM,> 100 µM,0.174 µM,0.42 µM,0.387 µM,,0.114 µM,0.458 µM,0.229 µM,> 38.8 µM,0.586 µM,> 100 µM,0.277 µM,,0.0351 µM,0.154 µM,0.428 µM,,0.337 µM,
O=C(Oc1ccc(CCl)cc1)c1ccccc1,0.138 µM,0.268 µM,0.127 µM,0.274 µM,0.0615 µM,0.288 µM,0.149 µM,0.311 µM,0.322 µM,1.15 µM,0.159 µM,0.315 µM,0.103 µM,0.247 µM,0.166 µM,0.323 µM,0.119 µM,0.246 µM,0.212 µM,0.419 µM
COc1ccc(-c2nc(-c3cn(C)c4ncccc34)cs2)cc1,78.5 µM,> 100 µM,22.2 µM,> 100 µM,37.1 µM,> 100 µM,75.3 µM,> 100 µM,> 100 µM,> 100 µM,79.3 µM,> 100 µM,19.3 µM,> 100 µM,8.01 µM,> 100 µM,91.7 µM,> 100 µM,> 100 µM,> 100 µM
COc1c(O)ccc2c1CN1CCc3cc4c(cc3C1C2)OCO4 (configuration not stated),,> 100 µM,,> 100 µM,,> 100 µM,,> 100 µM,,> 100 µM,,> 100 µM,,> 100 µM,,> 100 µM,,> 79 µM,,> 100 µM
COc1ccc(-c2cn[nH]c2-c2cc(OC)c(OC)c(OC)c2)cc1N,< 0.01 µM and 0.0404 µM,> 100 µM,,> 100 µM,< 0.01 µM and 0.0535 µM,30.8 µM and 54.1 µM,< 0.01 µM and 0.063 µM,> 100 µM,< 0.01 µM and 0.0634 µM,> 100 µM,,> 100 µM,< 0.01 µM and 0.0397 µM,> 100 µM,< 0.01 µM and 0.026 µM,> 100 µM,< 0.01 µM and 0.044 µM,> 100 µM,< 0.01 µM and 0.0415 µM,> 100 µM
CC(C)(O)C1OCC(C2CCC3(C)C4=CCC5C(C)(C)C(O)CCC5(C)C4CCC23C)CC1O (configuration not stated),,27.5 µM,,39.5 µM,,77.8 µM,,28.6 µM,,81.3 µM,,29.2 µM,,28.5 µM,,27 µM,,28.6 µM,,31 µM
O=C1CCC2(C=C(Br)C(=O)C(Br)=C2)O1,14.7 µM,28.9 µM,2.07 µM,4.67 µM,10.7 µM,46 µM,15.4 µM,33.6 µM,12 µM,30 µM,1.69 µM,3.87 µM,1.81 µM,3.54 µM,17.4 µM,31.3 µM,1.78 µM,3.19 µM,6.59 µM,15.6 µM
CC(NNC(=S)N1CCCCCC1)c1ccc2ccccc2n1 (configuration not stated),0.92 µM,20.4 µM,3.15 µM,37.8 µM,5.36 µM,> 100 µM,2.03 µM,20.5 µM,11.8 µM,> 87.1 µM,5.18 µM,40.4 µM,3.23 µM,33.2 µM,2.57 µM,41.4 µM,0.66 µM,14.6 µM,1.85 µM,51.3 µM
OCCCCC#Cc1ccccc1C#Cc1ccccc1C(F)(F)F,4.63 µM,17.9 µM,14.7 µM,37.5 µM,3.84 µM,26 µM,2.83 µM,12.4 µM,12.1 µM,27.8 µM,13.2 µM,28.5 µM,4.35 µM,16.4 µM,3.57 µM,16.7 µM,11.4 µM,23.5 µM,11.2 µM,23.2 µM
C/C=C(\C)C(=O)O[C@H]1C=CC(=O)O[C@H]1CNC(=O)[C@H](C)O,15.7 µM,29.9 µM,18.5 µM,35.1 µM,21.3 µM,45.7 µM,19.1 µM,36.3 µM,22.1 µM,47.8 µM,17.4 µM,32.4 µM,14.6 µM,28.6 µM,17 µM,32 µM,15.7 µM,29.9 µM,22.6 µM,53.3 µM
Cc1ccc2c(N)c(C(=O)N[C@H]3CCc4cc(N5CC6CCC(C5)N6)ccc4C3)sc2n1,0.311 µM,2.15 µM,0.441 µM,2.04 µM,0.764 µM,3.42 µM,0.606 µM,2.71 µM,1.24 µM,5.31 µM,0.586 µM,2.81 µM,0.293 µM,2.13 µM,0.693 µM,3.33 µM,0.158 µM,2.01 µM,0.348 µM,2.72 µM
O=C(NOCC1CC1)c1ccc(F)c(F)c1Nc1ccc(I)cc1Cl,1.55 µM,12.2 µM,0.0228 µM,0.0674 µM,1.97 µM,9.48 µM,0.672 µM,14.7 µM,0.782 µM,23 µM,0.0526 µM,0.812 µM,0.141 µM,> 39.3 µM,0.649 µM,7.34 µM,1.13 µM,> 39 µM,1.05 µM,5.77 µM
Cn1c(=O)c2[nH]c(CS(=O)(=O)Cc3nc4c([nH]3)c(=O)n(C)c(=O)n4C)nc2n(C)c1=O,,> 100 µM,,> 100 µM,,> 100 µM,,> 100 µM,,> 100 µM,,> 100 µM,,> 100 µM,,> 100 µM,,> 100 µM,,> 100 µM

# Source: PubChem BioAssay (NCI)
